Test results reported in patent publication US20060014737A1, “Methods of treatment of amyloidosis using bi-aryl aspartyl protease inhibitors” (priority 2004, published 2006).
“And” between values parts separate entries of the source, which are not always exact repeats. Identical values can stand only once.

Legend:
[1] = test system: catD versus beta-secretase (BACE); test: Selectivity for BACE versus catD (ratio of IC50 values); format: biochemical; details: each value an average of four runs; multiple values = more than one experiment
Protocol: (§1) Investigation of potential beta-secretase inhibitors produced compounds with increased selectivity for beta-secretase over other aspartyl proteases such as cathepsin D (catD), cathepsin E (catE), HIV protease, and renin. Selectivity was calculated as a ratio of inhibition (IC50) values in which the inhibition of beta-secretase was compared to the inhibition of other aspartyl proteases. […] Alternatively, a compound is selective when its binding affinity is greater for its desired target (e.g., beta-secretase) versus a secondary target (e.g., catD). Accordingly, methods of treatment include administering selective compounds of formula (I) having a lower IC50 value for inhibiting beta-secretase, or greater binding affinity for beta-secretase, than for other aspartyl proteases such as catD, catE, HIV protease, or renin. A selective compound is also capable of producing a higher ratio of desired effects to adverse effects, resulting in a safer method of treatment.
The compounds of formula (I) can be selective for beta-secretase versus catD. […] Selectivity is reported as the ratio of IC50(catD):IC50(BACE).
(§2) In the following examples, each value is an average of four experimental runs and multiple values for one compound indicate that more than one experiment was conducted.

[2] = test system: catE versus beta-secretase (BACE); test: Selectivity for BACE versus catE (ratio of IC50 values); format: biochemical; details: each value an average of four runs; multiple values = more than one experiment
Protocol: as §1
The compounds of formula (I) can be selective for beta-secretase versus catE. […] Selectivity is reported as the ratio of IC50(catE):IC50(BACE).
as §2

[3] = test system: A-beta; test: Efficacy of compounds to inhibit A-beta concentration; format: in vivo, rat; details: % inhibition of A-beta vs vehicle control
Protocol: Efficacious compounds of the present invention are those able to decrease the amount of A-beta produced compared to a control, where beta-secretase mediated cleavage is observed and measured in the absence of the compounds. Detection of efficacy can be by analysis of A-beta levels, for example, by immunoassay, fluorometric or chromogenic assay, HPLC, or other means of detection. The efficacy of the compounds of formula (I) was determined as a percentage inhibition corresponding to A-beta concentrations for tissue treated and untreated with a compound of formula (I).
The invention encompasses compounds of formula (I) that are efficacious. Efficacy is calculated as a percentage of concentrations as follows: Efficacy=(1−(total A-beta in dose group/total A-beta in vehicle control))*100% wherein the “total A-beta in dose group” equals the concentration of A-beta in the tissue, (e.g., rat brain) treated with the compound, and the “total A-beta in vehicle control” equals the concentration of A-beta in the tissue, yielding a % inhibition of A-beta production. Statistical significance is determined by p-value <0.05 using the Mann Whitney t-test. See, for example, Dovey et al., J. Neurochemistry, 2001, 76:173-181.

Row | Selectivity IC50(catD)/IC50(BACE) [1] | Structure (SMILES) | also measured
1 | >33.1 | CC(=O)NC(Cc1cc(F)cc(F)c1)C(O)CNCc1cc(CC(C)(C)C)ccc1-n1nccn1 (centres unmarked) [Example 41.7, N-(1-(3,5-difluorophenyl)-3-hydroxy-4-(5-neopentyl-2-(2H-1,2,3-triazol-2-yl)benzylamino)butan-2-yl)acetamide] | 
2 | 1.7 | CC(=O)NC(Cc1cc(F)cc(F)c1)C(O)CNCc1cc(CC(C)(C)C)ccc1-n1cnc(C)c1 (centres unmarked) [Example 41.4, N-{1-(3,5-Difluoro-benzyl)-3-[5-(2,2-dimethyl-propyl)-2-(4-methyl-imidazol-1-yl)-benzylamino]-2-hydroxy-propyl}-acetamide] | 
3 |  | CC(=O)NC(Cc1cc(F)cc(F)c1)C(O)CNCc1cc(CC(C)(C)C)ccc1-n1nccn1 (centres unmarked) [Example 41.11, N-(1-(3,5-difluorophenyl)-3-hydroxy-4-(5-neopentyl-2-(2H-1,2,3-triazol-2-yl)benzylamino)butan-2-yl)acetamide] | Selectivity IC50(catE)/IC50(BACE) [2]: 1.4
4 |  | CC(=O)NC(Cc1cc(F)cc(F)c1)C(O)CNCc1cc(CC(C)(C)C)ccc1-n1cnc(CO)c1 (centres unmarked) [Example 41.9, N-(1-(3,5-difluorophenyl)-3-hydroxy-4-(2-(4-(hydroxymethyl)-1H-imidazol-1-yl)-5-neopentylbenzylamino)butan-2-yl)acetamide] | Selectivity IC50(catE)/IC50(BACE) [2]: 1.2
5 | 1.6 | CC(=O)NC(Cc1cc(F)cc(F)c1)C(O)CNCc1cc(CC(C)(C)C)ccc1-n1cnc(CO)c1 (centres unmarked) [Example 41.3, N-(1-(3,5-difluorophenyl)-3-hydroxy-4-(2-(4-(hydroxymethyl)-1H-imidazol-1-yl)-5-neopentylbenzylamino)butan-2-yl)acetamide] | 
6 |  | CC(=O)NC(Cc1cc(F)cc(F)c1)C(O)CNCc1cc(CC(C)(C)C)ccc1-n1ccnc1 (centres unmarked) [Example 41.1, N-{1-(3,5-Difluoro-benzyl)-3-[5-(2,2-dimethyl-propyl)-2-imidazol-1-yl-benzylamino]-2-hydroxy-propyl}-acetamide] | Efficacy (% Inhibition, 100 mg/kg) cortex ([3]; cortex): 15%; Efficacy (% Inhibition, 100 mg/kg) plasma ([3]; plasma): 47%
7 | 3.6 and 3.0 | CC(=O)NC(Cc1cc(F)cc(F)c1)C(O)CNCc1cc(CC(C)(C)C)ccc1-n1cnc2ccccc21 (centres unmarked) [Example 41.5, N-[3-[2-Benzoimidazol-1-yl-5-(2,2-dimethyl-propyl)-benzylamino]-1-(3,5-difluoro-benzyl)-2-hydroxy-propyl]-acetamide] | 
